Measured values reported in patent publication US20080082038A1, “Medical Device including a Bioactive in a Non-ionic and an Ionic Form and Methods of Preparation Thereof” (Vance Products Incorporated, d/b/a/ Cook Urological …, priority 2006, published 2008).
Where a name gives a salt, the structure may show the parent alone. Read-outs that look alike come from different tables or passages of the source.

Key:
[1] = Solubility of bupivacaine free-base and salt in water and ethanol; assay type: physicochemical
Experimental: In water, the free-base (unionized form) of bupivacaine is much less soluble in water than the salt form (bupivacaine-HCl). A water suspension of free-base in water has a pH of 7.85. […] By lowering the pH, the ratio of protonated bupivacaine (ionized) to unprotonated bupivacaine (unionized) increases.
(§1) Stents, prepared as described in Example 1, are imbibed in 5% bupivacaine-HCl in water/ethanol for 20 minutes at 45° C.

[2] = Elution of deposited drug from imbibed stents in buffered saline solution (HPLC); assay type: physicochemical; conditions: for rate of elution of drug from imbibed polyurethane stent: polyurethane stent imbibed with the named form
Experimental: as §1
The amount of drug deposited on the stent is determined by high performance liquid chromatography (HPLC). The rate of bupivacaine dissolution is determined by measuring the elution profiles using HPLC.
The solubility and thus the ratio of bupivacaine to bupivacaine-HCl was determined by the elution of the deposited drug in buffered saline solution (pH=7.4) mimicking a bodily fluid.

[3] = buffered saline solution pH=7.4

| solubility ([1]; aqueous buffer, water, pH between 1.8 and 6, read-out: solubility (dissolved in water)) | solubility ([1]; ethanol, organic solvent or mixture, read-out: solubility in ethanol) | solubility ([1]; water, read-out: solubility in water) | rate of elution of drug from imbibed polyurethane stent [2] | pH of water suspension of free-base ([1]; suspension in water) | solubility ([1]; water, pH 7.85, water, thermodynamic from solid, read-out: solubility) | elution of the drug on day one and day two, ethanol solution relative to water solution [2, 3] | solubility of the deposited drug, ethanol deposition relative to water deposition [2, 3] | rate of elution of drug from imbibed polyurethane stent ([2]; listed as bupivacaine free-base) | SMILES | solubility in aqueous solution relative to the bupivacaine-salt ([1]; aqueous solution) |
| --- | --- | --- | --- | --- | --- | --- | --- | --- | --- | --- |
| 40 to 50 mg/mL | 125 mg/mL | 40 mg/mL | can elute more quickly | – | – | – | – | – | CCCCN1CCCCC1C(=O)Nc1c(C)cccc1C (stereo not shown) [bupivacaine-HCl] | – |
| – | – | – | – | 7.85 | ~0.25 mg/mL | approximately six times | close to six times greater | greatly reduced | CCCCN1CCCCC1C(=O)Nc1c(C)cccc1C (stereo not shown) [bupivacaine] | at least two orders of magnitude less soluble |
